We go through 29 compounds from US11524938B2, “Aromatic sulfonamide derivatives” (Bayer Pharma Aktiengesellschaft, priority 2016, dated 2022).

The target of the test is T1, human P2X4 (Homo sapiens, UniProt Q99571).
T1 sequence (Q99571 1-388): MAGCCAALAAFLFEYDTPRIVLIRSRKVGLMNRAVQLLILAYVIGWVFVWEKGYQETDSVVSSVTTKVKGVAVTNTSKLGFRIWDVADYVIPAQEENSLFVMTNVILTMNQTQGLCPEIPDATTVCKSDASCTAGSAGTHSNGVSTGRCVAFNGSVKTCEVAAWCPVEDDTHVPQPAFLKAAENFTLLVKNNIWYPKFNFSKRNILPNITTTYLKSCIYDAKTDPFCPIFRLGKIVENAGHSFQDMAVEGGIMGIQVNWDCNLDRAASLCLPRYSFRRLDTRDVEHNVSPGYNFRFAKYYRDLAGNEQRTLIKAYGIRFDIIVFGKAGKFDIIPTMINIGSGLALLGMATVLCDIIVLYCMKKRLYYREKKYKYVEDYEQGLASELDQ
In words: Human P2X4 HEK Cell FLIPR Assay. The class given is cell-based. The conditions noted are these: agonist Bz-ATP at EC80; for Emax: HEK293, HEK293 cells, percentage of maximal inhibition, read-out: Human P2X4 HEK Cells (FLIPR Assay) avg Efficacy [%]; for IC50: HEK293 cells, individual values listed where some fall outside detection range. An outline of the steps: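 HEK293 cells stably expressing human P2X4, Fluo8-AM loaded 30 min at 37° C, then compound 30 min at room temperature (0.5% DMSO, pH 7.4 buffer with 1.8 mM CaCl2). Bz-ATP at its daily-determined EC80 added; calcium fluorescence read over 120 sec; IC50 from peak RFU normalized to agonist control, triplicates.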

Each structure is given as a SMILES string. Several values for one entry are separate records, joined by “and”; a condition that tells them apart may be missing. Identical values can stand only once. A value given as a limit tells only on which side of the number the result lay.

On to `Cc1ncc(-c2ccc(NC(=O)Cc3ccccc3Cl)cc2S(N)(=O)=O)s1` [Example 423, 2-(2-Chlorophenyl)-N-[4-(2-methyl-1,3-thiazol-5-yl)-3-sulfamoylphenyl]acetamide], for which the Emax was found to be 86% and the IC50 (commonly the concentration at which inhibition is half-maximal) was 53 nM.

Turning to `Cc1cc(-c2ccc(NC(=O)Cc3ccccc3Cl)cc2S(N)(=O)=O)sn1` [Example 424, 2-(2-Chlorophenyl)-N-[4-(3-methyl-1,2-thiazol-5-yl)-3-sulfamoylphenyl]acetamide], the Emax amounted to 88% and the IC50 was determined as 29 nM.

As to `Cc1csc(-c2ccc(NC(=O)Cc3ccccc3Cl)cc2S(N)(=O)=O)n1` [Example 425, 2-(2-Chlorophenyl)-N-[4-(4-methyl-1,3-thiazol-2-yl)-3-sulfamoylphenyl]acetamide], the Emax was determined as 74% and the 50% inhibitory concentration (IC50) was 50 nM.

`NS(=O)(=O)c1cc(NC(=O)Cc2ccccc2Cl)ccc1-c1cnsc1` [Example 426, 2-(2-Chlorophenyl)-N-[3-sulfamoyl-4-(1,2-thiazol-4-yl)phenyl]acetamide]: the Emax amounted to 86% and the IC50 came out at 24 nM.

Consider `NS(=O)(=O)c1cc(NC(=O)Cc2ccccc2Cl)ccc1-c1nccs1` [Example 427, 2-(2-Chlorophenyl)-N-[3-sulfamoyl-4-(1,3-thiazol-2-yl)phenyl]acetamide], for which the Emax was 65% and the 50% inhibitory concentration (IC50) turned out to be 72 nM.

Consider `N#Cc1csc(-c2ccc(NC(=O)Cc3ccccc3Cl)cc2S(N)(=O)=O)n1` [Example 428, 2-(2-Chlorophenyl)-N-[4-(4-cyano-1,3-thiazol-2-yl)-3-sulfamoylphenyl]acetamide], for which the Emax is 57% and the IC50 is 27 nM.

Turning to `NS(=O)(=O)c1cc(NC(=O)Cc2ccccc2Cl)ccc1-c1cnc(C(F)F)s1` [Example 429, 2-(2-Chlorophenyl)-N-{4-[2-(difluoromethyl)-1,3-thiazol-5-yl]-3-sulfamoylphenyl}acetamide], the Emax worked out at 91% and the concentration for half-maximal inhibition (IC50) is 108 nM.

Take `NS(=O)(=O)c1cc(NC(=O)Cc2ccccc2Cl)ccc1-c1cnc(C2CC2)s1` [Example 430, 2-(2-Chlorophenyl)-N-[4-(2-cyclopropyl-1,3-thiazol-5-yl)-3-sulfamoylphenyl]acetamide]: the Emax worked out at 87% and the IC50 came to 86 nM.

In the case of `NS(=O)(=O)c1cc(NC(=O)Cc2ccccc2Cl)ccc1-c1csc(C2CC2)n1` [Example 431, 2-(2-Chlorophenyl)-N-[4-(2-cyclopropyl-1,3-thiazol-4-yl)-3-sulfamoylphenyl]acetamide], the Emax stood at 83% and the IC50 is 2880 nM.

Consider `Cc1coc(-c2ccc(NC(=O)Cc3ccccc3Cl)cc2S(N)(=O)=O)n1` [Example 432, 2-(2-Chlorophenyl)-N-[4-(4-methyl-1,3-oxazol-2-yl)-3-sulfamoylphenyl]acetamide], for which the Emax was 92% and the IC50 turned out to be 597 nM.

On to `NS(=O)(=O)c1cc(NC(=O)Cc2ccccc2Cl)ccc1-c1csc(C(F)(F)F)n1` [Example 433, 2-(2-Chlorophenyl)-N-{3-sulfamoyl-4-[2-(trifluoromethyl)-1,3-thiazol-4-yl]phenyl}acetamide], for which the Emax came to 28% and the IC50 was > 25000 nM.

`NS(=O)(=O)c1cc(NC(=O)Cc2ccccc2Cl)ccc1-c1nc(C(F)(F)F)cs1` [Example 434, 2-(2-Chlorophenyl)-N-{3-sulfamoyl-4-[4-(trifluoromethyl)-1,3-thiazol-2-yl]phenyl}acetamide]: the Emax came out at 50%; the IC50 was 17800 nM and > 25000 nM.

For `CC(C)(O)c1ncc(-c2ccc(NC(=O)Cc3ccccc3Cl)cc2S(N)(=O)=O)s1` [Example 435, 2-(2-Chlorophenyl)-N-{4-[2-(2-hydroxypropan-2-yl)-1,3-thiazol-5-yl]-3-sulfamoylphenyl}acetamide], the Emax came out at 77% and the IC50 worked out at 588 nM.

Regarding `CC(C)(O)c1nc(-c2ccc(NC(=O)Cc3ccccc3Cl)cc2S(N)(=O)=O)cs1` [Example 436, 2-(2-Chlorophenyl)-N-{4-[2-(2-hydroxypropan-2-yl)-1,3-thiazol-4-yl]-3-sulfamoylphenyl}acetamide], the Emax amounted to 56% and the IC50 is 12500 nM.

As to `NS(=O)(=O)c1cc(NC(=O)Cc2ccccc2Cl)ccc1-c1cscn1` [Example 437, 2-(2-Chlorophenyl)-N-[3-sulfamoyl-4-(1,3-thiazol-4-yl)phenyl]acetamide], the Emax came to 53% and the IC50 came out at 39 nM.

Take `NS(=O)(=O)c1cc(NC(=O)Cc2ccccc2Cl)ccc1-c1cc(C2CC2)on1` [Example 438, 2-(2-Chlorophenyl)-N-[4-(5-cyclopropyl-1,2-oxazol-3-yl)-3-sulfamoylphenyl]acetamide]: the Emax worked out at 75% and the IC50 worked out at 18 nM.

`NS(=O)(=O)c1cc(NC(=O)Cc2ccccc2Cl)ccc1-c1cnc(C2CC2)o1` [Example 439, 2-(2-Chlorophenyl)-N-[4-(2-cyclopropyl-1,3-oxazol-5-yl)-3-sulfamoylphenyl]acetamide]: the Emax came to 94% and the IC50 amounted to 4 nM.

`NS(=O)(=O)c1cc(NC(=O)Cc2ccccc2Cl)ccc1-n1cc(C(=O)N2CC(F)(F)C2)cn1` [Example 440, 2-(2-Chlorophenyl)-N-(4-{4-[(3,3-difluoroazetidin-1-yl)carbonyl]-1H-pyrazol-1-yl}-3-sulfamoylphenyl)acetamide]: the Emax turned out to be 96% and the IC50 was 112 nM.

On to `NS(=O)(=O)c1cc(NC(=O)Cc2ccccc2Cl)ccc1-n1cc(C(=O)N2CCC2)cn1` [Example 441, N-{4-[4-(Azetidin-1-ylcarbonyl)-1H-pyrazol-1-yl]-3-sulfamoylphenyl}-2-(2-chlorophenyl)acetamide], for which the Emax worked out at 91% and the IC50 amounted to 185 nM.

Consider `NS(=O)(=O)c1cc(NC(=O)Cc2ccccc2Cl)ccc1-n1cc(C(=O)N2CCCC2)cn1` [Example 442, 2-(2-Chlorophenyl)-N-{4-[4-(pyrrolidin-1-ylcarbonyl)-1H-pyrazol-1-yl]-3-sulfamoylphenyl}acetamide], for which the Emax was 89% and the IC50 amounted to 181 nM.

For the compound `NS(=O)(=O)c1cc(NC(=O)Cc2ccccc2Cl)ccc1-n1cc(C(=O)N2CCC(F)(F)C2)cn1` [Example 443, 2-(2-Chlorophenyl)-N-(4-{4-[(3,3-difluoropyrrolidin-1-yl)carbonyl]-1H-pyrazol-1-yl}-3-sulfamoylphenyl)acetamide], the Emax was determined as 84% and the half-maximal inhibitory concentration (IC50) was 122 nM.

For `NS(=O)(=O)c1cc(NC(=O)Cc2ccc(Cl)cc2)ccc1-c1cncc(C(F)(F)F)c1` [Example 444, 2-(4-Chlorophenyl)-N-{3-sulfamoyl-4-[5-(trifluoromethyl)pyridin-3-yl]phenyl}acetamide], the Emax is 77% and the half-maximal inhibitory concentration (IC50) is 635 nM.

`NS(=O)(=O)c1cc(NC(=O)Cc2c(F)cccc2Cl)ccc1-c1cncc(C(F)(F)F)c1` [Example 445, 2-(2-Chloro-6-fluorophenyl)-N-{3-sulfamoyl-4-[5-(trifluoromethyl)pyridin-3-yl]phenyl}acetamide]: the Emax was determined as 71% and the 50% inhibitory concentration (IC50) was 60 nM.

Regarding `NS(=O)(=O)c1cc(NC(=O)Cc2ccc(C(F)(F)F)cc2)ccc1-c1cncc(C(F)(F)F)c1` [Example 446, N-{3-Sulfamoyl-4-[5-(trifluoromethyl)pyridin-3-yl]phenyl}-2-[4-(trifluoromethyl)phenyl]acetamide], the Emax came to 76% and the half-inhibitory concentration (IC50) turned out to be 621 nM.

For `NS(=O)(=O)c1cc(NC(=O)Cc2cccc(F)c2)ccc1-c1cncc(C(F)(F)F)c1` [Example 447, 2-(3-Fluorophenyl)-N-{3-sulfamoyl-4-[5-(trifluoromethyl)pyridin-3-yl]phenyl}acetamide], the Emax was found to be 68% and the concentration for half-maximal inhibition (IC50) was 1020 nM.

Turning to `NS(=O)(=O)c1cc(NC(=O)Cc2ccc(Cl)cc2Cl)ccc1-c1cncc(C(F)(F)F)c1` [Example 448, 2-(2,4-Dichlorophenyl)-N-{3-sulfamoyl-4-[5-(trifluoromethyl)pyridin-3-yl]phenyl}acetamide], the Emax was determined as 63% and the concentration for half-maximal inhibition (IC50) is 472 nM.

`NS(=O)(=O)c1cc(NC(=O)Cc2ccccc2Br)ccc1-c1cncc(C(F)(F)F)c1` [Example 449, 2-(2-Bromophenyl)-N-{3-sulfamoyl-4-[5-(trifluoromethyl)pyridin-3-yl]phenyl}acetamide]: the Emax came to 73% and the IC50 is 135 nM.

With `NS(=O)(=O)c1cc(NC(=O)Cc2ccc(F)cc2F)ccc1-c1cncc(C(F)(F)F)c1` [Example 450, 2-(2,4-Difluorophenyl)-N-{3-sulfamoyl-4-[5-(trifluoromethyl)pyridin-3-yl]phenyl}acetamide], the Emax was found to be 72% and the IC50 stood at 148 nM.

Take `NS(=O)(=O)c1cc(NC(=O)Cc2ccc(F)c(F)c2)ccc1-c1cncc(C(F)(F)F)c1` [Example 451, 2-(3,4-Difluorophenyl)-N-{3-sulfamoyl-4-[5-(trifluoromethyl)pyridin-3-yl]phenyl}acetamide]: the Emax was determined as 86% and the IC50 was 244 nM.
